Cl.N/N=C(\N)NN
Settings	solubility (mole fraction)
in THF, 273.15 K	1.96e-05
in THF, 278.15 K	2.74e-05
in THF, 283.15 K	3.7e-05
in THF, 288.15 K	5.17e-05
in THF, 293.15 K	6.85e-05
in THF, 298.15 K	9.12e-05
in THF, 303.15 K	0.000119
in THF, 308.15 K	0.000154
in THF, 313.15 K	0.000209
in THF, 318.15 K	0.000265
in THF, 323.15 K	0.000333
in acetonitrile, 273.15 K	7.35e-06
in acetonitrile, 278.15 K	1.19e-05
in acetonitrile, 283.15 K	1.4e-05
in acetonitrile, 288.15 K	2.09e-05
in acetonitrile, 293.15 K	2.72e-05
in acetonitrile, 298.15 K	3.41e-05
in acetonitrile, 303.15 K	5.02e-05
in acetonitrile, 308.15 K	6.91e-05
in acetonitrile, 313.15 K	8.3e-05
in acetonitrile, 318.15 K	9.96e-05
in acetonitrile, 323.15 K	0.000142
in ethanol, 273.15 K	0.000112
in ethanol, 278.15 K	0.000156
in ethanol, 283.15 K	0.000207
in ethanol, 288.15 K	0.0003
in ethanol, 293.15 K	0.000373
in ethanol, 298.15 K	0.00054
in ethanol, 303.15 K	0.000666
in ethanol, 308.15 K	0.000904
in ethanol, 313.15 K	0.00119
in ethanol, 318.15 K	0.00158
in ethanol, 323.15 K	0.002
in ethyl acetate, 273.15 K	1.56e-05
in ethyl acetate, 278.15 K	2.2e-05
in ethyl acetate, 283.15 K	3.03e-05
in ethyl acetate, 288.15 K	4.16e-05
in ethyl acetate, 293.15 K	5.57e-05
in ethyl acetate, 298.15 K	7.51e-05
in ethyl acetate, 303.15 K	0.000101
in ethyl acetate, 308.15 K	0.00013
in ethyl acetate, 313.15 K	0.000169
in ethyl acetate, 318.15 K	0.000217
in ethyl acetate, 323.15 K	0.000281
in isobutanol, 273.15 K	2.22e-05
in isobutanol, 278.15 K	3.04e-05
in isobutanol, 283.15 K	4.2e-05
in isobutanol, 288.15 K	5.88e-05
in isobutanol, 293.15 K	7.77e-05
in isobutanol, 298.15 K	0.000105
in isobutanol, 303.15 K	0.000134
in isobutanol, 308.15 K	0.000177
in isobutanol, 313.15 K	0.000233
in isobutanol, 318.15 K	0.000301
in isobutanol, 323.15 K	0.000389
in isopropanol, 273.15 K	2.41e-05
in isopropanol, 278.15 K	3.39e-05
in isopropanol, 283.15 K	4.68e-05
in isopropanol, 288.15 K	6.35e-05
in isopropanol, 293.15 K	8.43e-05
in isopropanol, 298.15 K	0.000112
in isopropanol, 303.15 K	0.000148
in isopropanol, 308.15 K	0.000192
in isopropanol, 313.15 K	0.000248
in isopropanol, 318.15 K	0.000326
in isopropanol, 323.15 K	0.000417
in methanol, 273.15 K	0.00218
in methanol, 278.15 K	0.00272
in methanol, 283.15 K	0.00338
in methanol, 288.15 K	0.00436
in methanol, 293.15 K	0.00522
in methanol, 298.15 K	0.00664
in methanol, 303.15 K	0.00802
in methanol, 308.15 K	0.00971
in methanol, 313.15 K	0.0118
in methanol, 318.15 K	0.0144
in methanol, 323.15 K	0.0175
in n-butanol, 273.15 K	3.27e-05
in n-butanol, 278.15 K	4.64e-05
in n-butanol, 283.15 K	6.17e-05
in n-butanol, 288.15 K	8.36e-05
in n-butanol, 293.15 K	0.000111
in n-butanol, 298.15 K	0.000147
in n-butanol, 303.15 K	0.000197
in n-butanol, 308.15 K	0.000259
in n-butanol, 313.15 K	0.000345
in n-butanol, 318.15 K	0.000432
in n-butanol, 323.15 K	0.000549
in n-heptane, 273.15 K	1.74e-05
in n-heptane, 278.15 K	2.52e-05
in n-heptane, 283.15 K	3.41e-05
in n-heptane, 288.15 K	4.7e-05
in n-heptane, 293.15 K	6.36e-05
in n-heptane, 298.15 K	8.63e-05
in n-heptane, 303.15 K	0.000119
in n-heptane, 308.15 K	0.000153
in n-heptane, 313.15 K	0.000204
in n-heptane, 318.15 K	0.000264
in n-heptane, 323.15 K	0.000334
in n-hexane, 273.15 K	1.77e-05
in n-hexane, 278.15 K	2.5e-05
in n-hexane, 283.15 K	3.47e-05
in n-hexane, 288.15 K	4.69e-05
in n-hexane, 293.15 K	6.58e-05
in n-hexane, 298.15 K	8.84e-05
in n-hexane, 303.15 K	0.000115
in n-hexane, 308.15 K	0.000154
in n-hexane, 313.15 K	0.000205
in n-hexane, 318.15 K	0.000261
in n-hexane, 323.15 K	0.00035
in n-propanol, 273.15 K	4.25e-05
in n-propanol, 278.15 K	5.9e-05
in n-propanol, 283.15 K	7.94e-05
in n-propanol, 288.15 K	0.00011
in n-propanol, 293.15 K	0.000145
in n-propanol, 298.15 K	0.000189
in n-propanol, 303.15 K	0.000253
in n-propanol, 308.15 K	0.000319
in n-propanol, 313.15 K	0.000412
in n-propanol, 318.15 K	0.000539
in n-propanol, 323.15 K	0.000675
in water, 273.15 K	0.0395
in water, 278.15 K	0.0481
in water, 283.15 K	0.0546
in water, 288.15 K	0.0664
in water, 293.15 K	0.0778
in water, 298.15 K	0.0879
in water, 303.15 K	0.101
in water, 308.15 K	0.112
in water, 313.15 K	0.127
in water, 318.15 K	0.145
in water, 323.15 K	0.161
